Reference: patent EP0802181B1, “Retinoids” (F. HOFFMANN-LA ROCHE AG, priority 1996, dated 1997)
Like-named read-outs stand apart in the source and are kept apart here.

Key:
[1] = test system: limb bud cell culture; assay: limb bud cell culture assay (evaluation of teratogenic potential); format: cell-based
Excerpt: Teratogene Effekte gehören zu den schwerschwiegensten Nebenwirkungen aller Retinoide.

[2] = test system: Sebumdrüsen; assay: Minipig model (in vivo), histology of skin biopsies
Excerpt: Die Wirksamkeit der erfindungsgemässen Verbindungen bei der Behandlung der Akne kann mit den nachstehend beschriebenen Versuchsanordnungen gezeigt werden: • 1. Hemmung der Proliferation menschlicher Sebocyten (in vitro) Literatur: Methods in Enzymology 190, 334 (1990), T. Doran and S. Shapiro • 2. Aenderung der Differenzierung von Schweinesebocyten (invitro), Induktion von Keratin 7. Kulturen von Schweinesebocyten werden aus isolierten Sebumdrüsen erwachsener Minischweine hergestellt. Sie reagieren auf die Behandlung mit Retinoiden mit der Expression von Keratin 7, was auch der in vivo Situation entspricht. Keratin 7 wird als ein Marker für eine modifizierte Differenzierung der Sebocyten angesehen. Der entstehende Phenotyp kann kein Sebum mehr produzieren. Die Messung der Keratin 7-Induktion basiert auf einem ELISA assay unter Verwendung eines Maus-monoklonalen Antikeratin 7-Antikörpers. • 3. Minipig-Modell (in vivo) Die Haut der Minischweine hat eine ähnliche anatomische Struktur wie menschliche Haut. Im besonderen ähneln die Sebumdrüsen denen menschlicher Aknepatienten. Unter Retinoid-Behandlung zeigen sie die gleichen histologischen Veränderungen wie beim Menschen. Die Schweine erhalten täglich eine orale Dosis der Versuchssubstanz während 8 Wochen. Alle 2 Wochen wird eine Biopsie genommen und histologisch untersucht.

[3] = limb bud cell culture assay, IC50 correlates with in vivo teratogenicity, read-out: IC50

With `CC1=C(/C=C/C(C)=C/C=C/C(C)=C\C(=O)O)C(C)(C)C[C@H](O)C1` [Beispiel 1, (2Z,4E,6E,8E)-(R)-9-(4-Hydroxy-2,6,6-trimethyl-cyclohex-1-enyl)-3,7-dimethyl-nona-2,4,6,8-tetraensäure] the IC50 [1, 3] was greater than 1000 nM, the “Verkleinerung der Sebumdrüsen” value ([2]; daily oral dose 10 mg/kg, after 3-4 weeks) was “deutliche Verkleinerung der Sebumdrüsen” and the “Sebumdrüsen nach 8 Wochen” value ([2]; daily oral dose 10 mg/kg, after 8 weeks) was “weitgehend verschwunden”. For the same compound, the “Nebenwirkungen auf Haut und Schleimhäute” value ([2]; oral dose 50 mg/kg, in contrast to Isotretinoin) was “keinerlei Nebenwirkungen auf Haut und Schleimhäute”.
`CC1=C(C#C/C(C)=C/C=C/C(C)=C\C(=O)O)C(C)(C)C[C@H](O)C1` [Beispiel 3, (2Z,4E,6E)-(R)-9-(4-Hydroxy-2,6,6-trimethyl-cyclohex-1-enyl)-3,7-dimethyl-nona-2,4,6-trien-8-yn-säure] showed an IC50 [1, 3] greater than 1000 nM.
With `CC1=C(/C=C/C(C)=C/C=C/C(C)=C\C(=O)O)C(C)(C)C(=O)C=C1` [Beispiel 4, (2Z,4E,6E,8E)-9-(5-Oxo-2,6,6-trimethyl-cyclohexa-1,3-dienyl)-3,7-dimethyl-nona-2,4,6,8-tetraensäure] the IC50 [1, 3] was greater than 1000 nM.
Work on `CC1=C(/C=C/C(C)=C/C=C/C(C)=C\C(=O)O)C(C)(C)CCC1` [Isotretinoin, reference compound] yielded an IC50 [1] of 200 nM.
`CC1=C(/C=C/C(C)=C/C=C/C(C)=C/C(=O)O)C(C)(C)CCC1` [Tretinoin, reference compound] gave an IC50 [1] of 80 nM.
